Reference: patent publication US20180153995A1, “USE OF ANTIMICROBIAL POLYMERS FOR RE-SENSITIZATION OF MICROORGANISMS UPON EMERGENCE OF RESISTANCE TO ANTI-MICROBIAL AGENTS” (Technion Research & Development Foundation Limited, priority 2008, published 2018)
Several values for one entry are separate records, joined by “and”; a condition that tells them apart may be missing. Identical values can stand only once.

Legend:
[1] = system: E. coli N281 (L22 mutation); assay type: cell-based, Escherichia coli; conditions: E. coli N281; polymer alone
[2] = system: E. coli K-12 efflux knockout mutant; assay type: cell-based, Escherichia coli; conditions: E. coli K-12 strain with decreased levels of efflux pumps
Method: (§1) MICs were determined by microdilution susceptibility testing in 96-well plates (by Nunc) using inocula of 10^5 bacteria per ml. Cell populations were evaluated by optical density measurements at 620 nm and were calibrated against a set of standards. Hundred (100) μl of a bacterial suspension were added to 100 μl of culture medium (control) or to 100 μl of culture medium containing various polymer concentrations in 2-fold serial dilutions. Inhibition of proliferation was determined by optical density measurements at 620 nm after an incubation period of 24 hours at 37° C.

[3] = system: E. coli CI14213; assay type: cell-based, Escherichia coli
Method: as §1

[4] = system: E. coli N282 (L4 mutation); assay type: cell-based, Escherichia coli; conditions: E. coli N282; polymer alone
[5] = system: Escherichia coli strains; assay type: cell-based; conditions: isogenic pair of E. coli K-12 strains
Method: as §1

[6] = system: MRSA 15903; test: microbe, parasite or virus in culture; assay type: cell-based, Staphylococcus aureus; conditions: S. aureus CI-15903; +polymer (⅓ MIC) C12(5-ene)KKNC12KNH2
Method: The fractionary inhibitory (FIC) concentration index for combinations of two antimicrobial agents was calculated as follows: FIC index=FICA+FICB=A/MICA+B/MICB where A and B are the MIC values of agent A and agent B in the combination, MICA and MICB are the MICs of agent A and agent B alone, and FICA and FICB are the FICs of agent A and agent B.
The FIC indexes were interpreted as follows: less than 0.5 indicates a clear re-sensitizing effect; from 0.5 to 4 indicates a marginal or null re-sensitizing effect; and over 4 indicates antagonism.
Experimental data for FIG. 4 were obtained as follows.

[7] = system: E. coli K-12 resistant wild type; assay type: cell-based, Escherichia coli; conditions: E. coli K-12 multi-resistant wild type

## CCCCCCCCCCCC(=O)N[C@@H](CCCCN)C(=O)NCCCCCCCC(=O)N[C@@H](CCCCN)C(=O)NCCCCCCCC(=O)N[C@@H](CCCCN)C(=O)NCCCCCCCC(=O)N[C@@H](CCCCN)C(=O)NCCCCCCCC(=O)N[C@@H](CCCCN)C(=O)NCCCCCCCC(=O)N[C@@H](CCCCN)C(=O)NCCCCCCCC(=O)N[C@@H](CCCCN)C(=O)NCCCCCCCC(=O)N[C@@H](CCCCN)C(N)=O [C12K(NC8K)7NH2]
[1]
  MIC of polymer: 3.1 µM
[2]
  effect of polymer on antibiotic MICs: not altered significantly
[3]; CI14213
  MIC of polymer: 3.1 µM
[3]; E. coli CI14213, polymer well below MIC (up to ⅛ MIC), 24 hours
  re-sensitizing effect of polymer on oxacillin: endowed potency to oxacillin
[4]
  MIC of polymer: 1.6 µM and 3.1 µM
[5]
  MIC of polymer: 3.125 µg/mL
[6]
  MIC: 12.5 µg/mL
[7]
  effect of polymer on antibiotics potency: enhanced antibiotics potency
